This note sets out measurements from ChEMBL document CHEMBL1155873, “Sesquiterpenes from the Hainan Sponge Dysidea septosa” (J Nat Prod, 2008).

The assay addresses T1, Tyrosine-protein phosphatase non-receptor type 1 (Homo sapiens, UniProt P18031).
T1 sequence (P18031 whole entry): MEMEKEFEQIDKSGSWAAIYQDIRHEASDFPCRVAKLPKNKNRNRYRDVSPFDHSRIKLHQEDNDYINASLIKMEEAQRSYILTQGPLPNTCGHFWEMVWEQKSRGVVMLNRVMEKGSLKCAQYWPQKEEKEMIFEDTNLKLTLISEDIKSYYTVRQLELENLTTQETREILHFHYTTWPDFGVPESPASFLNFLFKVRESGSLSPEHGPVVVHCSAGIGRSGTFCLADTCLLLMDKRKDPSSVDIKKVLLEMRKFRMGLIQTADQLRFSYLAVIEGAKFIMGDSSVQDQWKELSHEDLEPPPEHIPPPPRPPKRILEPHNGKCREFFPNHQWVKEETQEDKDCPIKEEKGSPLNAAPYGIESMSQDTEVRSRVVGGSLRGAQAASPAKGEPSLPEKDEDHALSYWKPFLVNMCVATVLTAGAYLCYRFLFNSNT
The assay is described as follows: Inhibition of human recombinant PTP1B catalytic domain.

Usually IC50 stands for the concentration that inhibits the measured activity by half. Take `C=C1C=CC[C@@H](C)[C@@]1(C)CCC1=CC(O)OC1=O` (some centres undefined) [HYDROXYBUTENOLIDE]: the IC50 was 46.7 µM.

With `C=C1CCC[C@@H](C)[C@@]1(C)CCc1ccoc1`, the half-maximal inhibitory concentration (IC50) is 31.1 µM.

Consider `CC1=C[C@@H]2C[C@H](C)[C@]1(C)CCc1ccoc12`, for which the IC50 is 8.78 µM.

For the molecule `C[C@@H]1[C@@H]2C=C[C@@](C)(OO2)[C@@]1(C)CCC1=CC(O)OC1=O` (some centres undefined) [LINGSHUIPEROXIDE], the IC50 was 31.4 µM.
